Patent US20250340561A1, “QUINAZOLINE COMPOUND FOR INDUCING DEGRADATION OF G12D MUTANT KRAS PROTEIN” (Astellas Pharma Inc., priority 2021, published 2025)
Counter-ions that a name gives are not always drawn.

Each compound was assayed against T1, KRAS G12D (Homo sapiens, UniProt P01116, G12D) (assay: Test Example 1-1: KRAS degradation action in AsPC-1, sandwich ELISA). Conditions: AsPC-1 cells, 24 hours treatment, corrected with β-actin, 0% = 10 μM Example No. 7.
T1 construct: host or cells: AsPC-1 human pancreatic cancer cells
T1 sequence (P01116 1-188 isoform P01116-2 G12D): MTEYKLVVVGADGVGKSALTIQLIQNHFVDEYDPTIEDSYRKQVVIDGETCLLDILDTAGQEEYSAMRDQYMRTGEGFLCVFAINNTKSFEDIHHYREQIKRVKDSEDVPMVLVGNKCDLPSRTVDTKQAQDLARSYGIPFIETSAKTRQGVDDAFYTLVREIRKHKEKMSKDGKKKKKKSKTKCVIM
Format: cell-based
Procedure: Test Example 1-1: Evaluation of KRAS Degradation Action on Human G12D Mutant KRAS-Positive Pancreatic Cancer Line AsPC-1
The KRAS degradation action of test compounds was evaluated by measuring the expression levels of KRAS G12D by a sandwich ELISA method.
AsPC-1 cells (ATCC, CRL-1682) were seeded at 90 μL per well on a 96-well plate (from IWAKI) to give 1.8×10^4 cells per well. As for the cell culture conditions, RPMI 1640 medium (from Merck) containing 10% fetal bovine serum (from Cytiva) was used in the presence of 5% CO2 at 37° C.
The next day, the test compounds (10 points having final concentrations in the range of 10 μM to 0.3 nM) were diluted 100-fold with a fresh medium and were added at 10 μL per well. The same treatments were each applied to 4 wells. In addition, in production of the sandwich ELISA plate, a capture antibody (anti-KRAS antibody, from LS Bio) mixed in Phosphate Buffered Saline [PBS; from FUJIFILM Wako Pure Chemical Corporation] in 1,000-fold dilution was added at 20 μL per well to a Maxisorp 384-well plate (from Thermo Scientific), and after attaching a seal, the plate was allowed to stand at 4° C. overnight.
After 24 hours of the test compound treatment, the culture supernatant was discarded. Immediately, a cytolytic solution (produced by adding, to a RIPA buffer [from Thermo Scientific], a Halt Protease Phosphatese Inhibitor Cocktail [from Thermo Scientific] and Benzonase Nuclease [from Merck] in amounts of 1/100 and 1/500, respectively) was added at 50 μL per well, and the cells were lysed. Then, equally treated 4 wells were combined to prepare a cell lysate sample of 200 μL in total. For KRAS detection, the Maxisorp 384-well plate which had been treated with the capture antibody since the previous day was washed (twice with 25 μL each) with 0.05% Tween-20-containing PBS (from Thermo Scientific; 20×PBS Tween-20 was diluted 20-fold with ion exchange water and used) and was treated with a blocking solution (Intercept Blocking Buffer; from LI-COR Biosciences) for 60 minutes, and then, the cell lysate samples were added at 20 μL per well. For 3-actin detection, the cell lysate samples were added as they were at 20 μL per well to the Maxisorp 384-well plate, and after attaching a seal, the plate was allowed to stand at 4° C. overnight.
The next day, after washing the KRAS detection plate with 0.05% Tween-20-containing PBS, an anti-Ras (G12D mutant specific) antibody (from Cell Signaling Technology) diluted 1,000-fold with a blocking solution was added at 20 μL per well as a detection antibody, and the plate was allowed to stand for 5 hours at room temperature. Then, the plate was centrifuged to remove the supernatant (using a centrifugal dehydrator machine, the supernatant was removed by the same method hereinafter) and was washed with 0.05% Tween-20-containing PBS. Then, an anti-Rabbit IgG […] antibody (from Cell Signaling Technology) diluted 1,000-fold with a blocking solution was added at 20 μL per well as a secondary antibody, and the plate was allowed to stand for 1 hour at room temperature. The plate was centrifuged to remove the supernatant and was washed with 0.05% Tween-20-containing PBS. Then, a BM chemiluminescent ELISA substrate (from Merck) was added at 20 μL per well, and the amounts of luminescence were measured with 2103 EnVision (from PerkinElmer). In addition, the 3-actin detection plate was washed with 0.05% Tween-20-containing PBS and was treated with a blocking solution for 60 minutes, and then, an anti-β-actin antibody (from Abcam) diluted 1,000-fold with a blocking solution was added at 20 μL per well as a detection antibody. The plate was allowed to stand for 5 hours at room temperature. Then, the plate was centrifuged to remove the supernatant and washed with 0.05% Tween-20-containing PBS, and then, an anti-Mouse IgG RP-linked antibody (from Cell Signaling Technology) diluted 1,000-fold with a blocking solution was added at 20 μL per well as a secondary antibody. […]

SMILES | DC50 [nM]
Cc1ncsc1-c1ccc([C@H](C)NC(=O)[C@@H]2C[C@@H](O)CN2C(=O)[C@H](C(C)C)n2cc(-c3ccc(COc4c(-c5c(C)c(F)cc6[nH]ncc56)c(C5CC5)cc5c(N6C[C@@H]7C[C@H]6CN7)nc(OC6CCOCC6)nc45)cc3)nn2)cc1 [Example 9] | 77
Cc1ncsc1-c1ccc([C@H](CO)NC(=O)[C@@H]2C[C@@H](O)CN2C(=O)C(C(C)C)n2cc(-c3ccc(COc4c(-c5c(C)c(F)cc6[nH]ncc56)c(C5CC5)cc5c(N6C[C@@H]7C[C@H]6CN7)nc(OC6CCOCC6)nc45)cc3)cn2)cc1 (single isomer, unassigned) [Example 11] | 178
Cc1ncsc1-c1ccc([C@@H](NC(=O)[C@@H]2C[C@@H](O)CN2C(=O)[C@H](C(C)C)n2cc(-c3ccc(COc4c(-c5c(C)c(F)cc6[nH]ncc56)c(C5CC5)cc5c(N6C[C@@H]7C[C@H]6CN7)nc(OC6CCOCC6)nc45)cc3)nn2)C(F)F)cc1 [Example 16] | 188
Cc1ncsc1-c1ccc([C@H](CO)NC(=O)[C@@H]2C[C@@H](O)CN2C(=O)[C@H](C(C)C)n2cc(-c3ccc(COc4c(-c5c(C)c(F)cc6[nH]ncc56)c(C5CC5)cc5c(N6C[C@@H]7C[C@H]6CN7)nc(OC6CCN(CC(F)F)CC6)nc45)cc3)nn2)cc1 [Example 21] | 72
Cc1c(F)cc2[nH]ncc2c1-c1c(C2CC2)cc2c(N3C[C@@H]4C[C@H]3CN4)nc(OC3CCOCC3)nc2c1OCc1ccc(-c2cn([C@H](C(=O)N3C[C@H](O)C[C@H]3C(=O)N[C@@H](CO)c3ccc(-c4ccnn4C)cc3)C(C)C)nn2)cc1 [Example 22] | 62
Cc1c(F)cc2[nH]ncc2c1-c1c(C2CC2)cc2c(N3C[C@@H]4C[C@H]3CN4)nc(OC3CCOCC3)nc2c1OCc1ccc(-c2cn([C@H](C(=O)N3C[C@H](O)C[C@H]3C(=O)N[C@@H](CO)c3ccc(Br)cc3)C(C)C)nn2)cc1 [Example 12] | 136
Cc1ncsc1-c1ccc([C@H](CO)NC(=O)[C@@H]2C[C@@H](O)CN2C(=O)[C@@H](NC(=O)c2ccc(COc3c(-c4c(C)c(F)cc5[nH]ncc45)c(C4CC4)cc4c(N5C[C@@H]6C[C@H]5CN6)nc(OC5CCOCC5)nc34)cc2)C(C)C)cc1 [Example 3] | 140
Cc1c(F)cc2[nH]ncc2c1-c1c(C2CC2)cc2c(N3C[C@@H]4C[C@H]3CN4)nc(OC3CCOCC3)nc2c1OCc1ccc(-c2cn([C@H](C(=O)N3C[C@H](O)C[C@H]3C(=O)N[C@@H](CO)c3ccc(F)cc3)C(C)C)nn2)cc1 [Example 13] | 151
Cc1ncsc1-c1ccc(CNC(=O)[C@@H]2C[C@@H](O)CN2C(=O)[C@H](C(C)C)n2cc(-c3ccc(COc4c(-c5c(C)c(F)cc6[nH]ncc56)c(C5CC5)cc5c(N6C[C@@H]7C[C@H]6CN7)nc(OC6CCOCC6)nc45)cc3)nn2)cc1 [Example 10] | 124
Cc1ncsc1-c1ccc([C@H](CO)NC(=O)[C@@H]2C[C@@H](O)CN2C(=O)[C@H](C(C)C)n2cc(-c3ccc(COc4c(-c5c(C)c(F)cc6[nH]ncc56)c(C5CC5)cc5c(N6C[C@@H]7C[C@H]6CN7)nc(O[C@@H]6CCOC6)nc45)cc3)nn2)cc1 [Example 28] | 45
Cc1ncsc1-c1ccc(C2(NC(=O)[C@@H]3C[C@@H](O)CN3C(=O)[C@@H](NC(=O)c3ccc(COc4c(-c5c(C)c(F)cc6[nH]ncc56)c(C5CC5)cc5c(N6C[C@@H]7C[C@H]6CN7)nc(OC6CCOCC6)nc45)cn3)C(C)C)CC2)cc1 [Example 2] | 598
Cc1ncsc1-c1ccc([C@H](CO)NC(=O)[C@@H]2C[C@@H](O)CN2C(=O)[C@H](C(C)C)n2cc(-c3ccc(COc4c(-c5c(C)c(F)cc6[nH]ncc56)c(C5CC5)cc5c(N6C[C@@H]7C[C@H]6CN7)nc(OC6CCN(C7COC7)CC6)nc45)cc3)nn2)cc1 [Example 24] | 103
Cc1ncsc1-c1ccc([C@H](CO)NC(=O)[C@@H]2C[C@@H](O)CN2C(=O)[C@H](C(C)C)n2cc(-c3ccc(COc4c(-c5c(C)c(F)cc6[nH]ncc56)c(C5CC5)cc5c(N6C[C@@H]7C[C@H]6CN7)nc(O[C@H]6CCOC6)nc45)cc3)nn2)cc1 [Example 29] | 33
Cc1ncsc1-c1ccc([C@H](CO)NC(=O)[C@@H]2C[C@@H](O)CN2C(=O)[C@H](C(C)C)n2cc(-c3ccc(COc4c(-c5cc(O)cc(F)c5C)c(C5CC5)cc5c(N6C[C@@H]7C[C@H]6CN7)nc(OC6CCOCC6)nc45)cc3)nn2)cc1 [Example 15] | 95
CCc1ccncc1Oc1nc(N2C[C@@H]3C[C@H]2CN3)c2cc(C3CC3)c(-c3c(C)c(F)cc4[nH]ncc34)c(OCc3ccc(-c4cn([C@H](C(=O)N5C[C@H](O)C[C@H]5C(=O)N[C@@H](CO)c5ccc(-c6scnc6C)cc5)C(C)C)nn4)cc3)c2n1 [Example 25] | 44
Cc1ncsc1-c1ccc([C@H](CF)NC(=O)[C@@H]2C[C@@H](O)CN2C(=O)[C@H](C(C)C)n2cc(-c3ccc(COc4c(-c5c(C)c(F)cc6[nH]ncc56)c(C5CC5)cc5c(N6C[C@@H]7C[C@H]6CN7)nc(OC6CCOCC6)nc45)cc3)nn2)cc1 [Example 17] | 92
Cc1ncsc1-c1ccc([C@H](CN(C)C)NC(=O)[C@@H]2C[C@@H](O)CN2C(=O)[C@H](C(C)C)n2cc(-c3ccc(COc4c(-c5c(C)c(F)cc6[nH]ncc56)c(C5CC5)cc5c(N6C[C@@H]7C[C@H]6CN7)nc(OC6CCOCC6)nc45)cc3)nn2)cc1 [Example 19] | 139
Cc1c(F)cc2[nH]ncc2c1-c1c(C2CC2)cc2c(N3C[C@@H]4C[C@H]3CN4)nc(OC3CCOCC3)nc2c1OCc1ccc(-c2cn([C@H](C(=O)N3C[C@H](O)C[C@H]3C(=O)N[C@@H](CO)c3ccc(N4CCOC4=O)cc3)C(C)C)nn2)cc1 [Example 20, (4R)-1-[(2S)-2-(4-{4-[({6-cyclopropyl-4-[(1S,4S)-2,5-diazabicyclo[2.2.1]heptan-2-yl]-7-(6-fluoro-5-methyl-1H-indazol-4-yl)-2-[(oxan-4-yl)oxy]quinazolin-8-yl}oxy)methyl]phenyl}-1H-1,2,3-triazol-1-yl)-3-methylbutanoyl]-4-hydroxy-N-{(1R)-2-hydroxy-1-[4-(2-oxo-1,3-oxazolidin-3-yl)phenyl]ethyl}-L-prolinamide] | 100
Cc1ncsc1-c1ccc([C@H](CO)NC(=O)[C@@H]2C[C@@H](O)CN2C(=O)[C@H](C(C)C)N2Cc3cc(COc4c(-c5c(C)c(F)cc6[nH]ncc56)c(C5CC5)cc5c(N6C[C@@H]7C[C@H]6CN7)nc(OC6CCOCC6)nc45)ccc3C2=O)cc1 [Example 4] | 897
CCn1nccc1-c1ccc([C@H](CO)NC(=O)[C@@H]2C[C@@H](O)CN2C(=O)[C@H](C(C)C)n2cc(-c3ccc(COc4c(-c5c(C)c(F)cc6[nH]ncc56)c(C5CC5)cc5c(N6C[C@@H]7C[C@H]6CN7)nc(OC6CCOCC6)nc45)cc3)nn2)cc1 [Example 26] | 24

Same assay, conditions: AsPC-1 cells, 24 hours treatment, corrected with β-actin, 0% = 10 μM Example No. 7, hydrochloride

SMILES | DC50 [nM]
Cc1ncsc1-c1ccc([C@H](CO)NC(=O)[C@@H]2C[C@@H](O)CN2C(=O)[C@H](C(C)C)n2cc(-c3ccc(COc4c(-c5c(C)c(F)cc6[nH]ncc56)c(C5CC5)cc5c(N6C[C@@H]7C[C@H]6CN7)nc(OC6CCOCC6)nc45)cc3)nn2)cc1 [Example 7, (4R)-1-[(2S)-2-(4-{4-[({6-cyclopropyl-4-[(1S,4S)-2,5-diazabicyclo[2.2.1]heptan-2-yl]-7-(6-fluoro-5-methyl-1H-indazol-4-yl)-2-[(oxan-4-yl)oxy]quinazolin-8-yl}oxy)methyl]phenyl}-1H-1,2,3-triazol-1-yl)-3-methylbutanoyl]-4-hydroxy-N-{(1R)-2-hydroxy-1-[4-(4-methyl-1,3-thiazol-5-yl)phenyl]ethyl}-L-prolinamide n hydrochloride] | 46
